Read-outs that look alike come from different tables or passages of the source.
Assays:
[1] = test system: trachea; assay: Passive Schultz-Dale reaction (bronchodilatory effects), relaxation of sensitized trachea strips; parameters: species or system guinea pig (Hartley male); conditions: Cavia porcellus; sensitized guinea pig trachea, EWA 1 μg/ml, 37° C.; read-out: Passive S-D reaction IC50 (concentration of 50% relaxation rate)
Protocol: Guinea pigs were passively sensitized as follows. […] After 24 hours, the guinea pigs were stunned and exsanguinated, and then trachea was excised. The zig-zag strips of the trachea were prepared by the method of Emmerson and Mackay [J. Pharm. […] After the contraction curves reached plateau the compounds were successively added in order to get cumulative concentration-relaxation curves.

[2] = test system: Platelet Activating Factor (PAF)-induced mortality; assay: Inhibition of Platelet Activating Factor (PAF)-induced mortality; format: in vivo, mouse (male dd mice); conditions: Mus musculus, 2 h, oral, mice, one hour before PAF 40 μg/kg i.v., p<0.05 vs control, read-out: PAF-induced mortality inhibition, minimum effective dose (MED)
Protocol: The experiment was performed by a minor modification of method of Carlson et al. [Agents and Actions, 21, 379 (1987)]. Groups each consisting of 10 male dd mice (weighing 28 to 32 g) were used, and 100 mg/kg of test compound or a saline (control) was orally administrated. One hour after the administration of test compound, 40 μg/kg of PAF (manufactured by Avanti Polar Lipids Co., Ltd.) was intravenously administered. Two hours after PAF injection, the mortality rate of the animals was observed.

[3] = test system: Glycerol-induced Renal Deficient Model; assay: Renal protecting activity (glycerol-induced renal deficient model): serum creatinine and urea nitrogen; format: in vivo, rat (Wistar male rats); conditions: 10 mg/kg intraperitoneal, rats, 24 hours after glycerol injection; own control beside each compound; normal control 0.50
Protocol: It is well known that subcutaneous or intramuscular administration of glycerol to rat induce acute renal insufficiency characterized by renal tubular disturbance [Can J. Physiol.
Wistar male rats (fasted both food and water for 18 hours) were used. A test compound or saline (control) was intraperitoneally administered (dose: 10 mg/kg) to rats. After 30 minutes rats were anesthesized with ether and the back skin was picked up and 0.8 ml/100 g of 50% glycerol was subcutaneously administered. 24 hours after the glycerol injection, the rats were anesthesized with ether and 5 ml of the blood was collected from the descending aorta. To obtain the serum, after allowing it to stand for 30 minutes or longer, the blood sample was centrifuged at 3000 rpm for 10 minutes. Creatinine in the serum sample was determined using autoanalyzer (AU510, Olympus) or clinical analysis kit of creatinine (Creatinine Test Wako; by Wako Pure Chemical Ind., Japan). Urea nitrogen in the serum was determined using autoanalyzer (AU510; made by Olympus Optical Co., Ltd, Japan) or clinical analysis kit of urea nitrogen (Urea nitrogen test wako; by Wako Pure Chemical Ind., Japan).

[4] = test system: Experimental asthma; assay: Experimental asthma (collapse time after antigen aerosol); format: in vivo, guinea pig (Hartley male); conditions: 50 mg/kg oral, passively sensitized guinea pigs, 1.5% EWA aerosol; control 254 ± 18
Protocol: Guinea pigs were passively sensitized as follows. Hartley male guinea pigs weighing 350 to 500 g were intraperitoneally injected with 1 ml of rabbit anti-egg alubmin (EWA) serum prepared by the method of Koda et al. [Folia pharmacol., Japon, 66, 237 (1970)]. The animals were treated with intraperitoneal injection of diphenhydramine (20 mg/kg) and propranolol (5 mg/kg), 30 minutes before administration of test compounds. 17 hours after the sensitization, the test compounds (50 mg/kg) or saline (control) were orally administered to sensitized animals. After one hour from the administration of the test compounds, the guinea pigs were placed in plastic observation box and were exposed to an aerosal antigen of 1.5% EWA.
The time until the onset of respiratory distress-like symptom [collapse time (second)] was measured as a result of experimental asthma.

[5] = Acute toxicity, minimum lethal dose (oral, mice); format: in vivo; conditions: male dd-mice, mortality observed for seven days
Protocol: The compounds were orally administrated to male dd-mice weighing 20±1 g. Minimum lethal dose (MLD) was determined by observing the mortality for seven days after the administration.

[6] = Diuretic activity (oral, urine collected for 6 hours); format: in vivo, rat (Wistar male rats); conditions: Rattus norvegicus, rats; for response vs control in vivo at 6.25 mg/kg: 6.25 mg/kg oral; for response vs control in vivo at 25 mg/kg: 25 mg/kg oral
Protocol: Wistar male rats weighing 150 to 300 g were used after they were fasted for 18 hours. A test compound or saline (control) was orally administered to rats and urine was collected for 6 hours. The test was performed using 3 groups per the test compound, and each group consists of 3 animals. The urine was metered by a measuring cylinder and electrolytes (Na^+ and K^+) in the urine were assayed with a flame photometer (model […] manufactured by Hitachi Ltd.). Parameters in Table 3 are all expressed by relative value for control.

[7] = J. Med. Chem., 23, 1188 (1980); cited from earlier work
[8] = relative value for control (1.00), read-out: Na+/K+
[9] = relative value for control, read-out: Excretion of K+
[10] = relative value for control, read-out: Excretion of Na+
[11] = relative value for control, read-out: Urine volume

| Compound | IC50 [1] [µM] | minimal effective dose [2] [mg/kg] | Experimental asthma, collapse time [4] [s] | Minimum lethal dose (MLD) [5] [mg/kg] | further results |
| --- | --- | --- | --- | --- | --- |
| CCCN1C(=O)N2CCN=C2c2[nH]cnc21 [Compound 2, 4-n-Propyl-1,4,7,8-tetrahydro-5H-imidazo[2,1-i]purin-5-one] | 21 | 100 | 552 ± 20 |  | Creatinine in serum, glycerol treated, test compound administrated [3]: 1.63 ± 0.19 mg/dL |
| Cn1c(=O)c2[nH]cnc2n(C)c1=O [Theophylline, reference compound] | 23 | 100 | 414 ± 47 |  |  |
| Cn1cnc2c1C1=NCCN1C(=O)N2Cc1ccccc1 [10 Sa] | 9.7 |  | 357 ± 65 | > 300 |  |
| CCCN1C(=O)N2CC(C(C)C)N=C2c2[nH]c(C3CCCC3)nc21 (centres unmarked) [13 Sa] |  |  | 374 ± 76 |  | response vs control in vivo at 6.25 mg/kg [6, 8]: 163%; response vs control in vivo at 6.25 mg/kg [6, 9]: 18%; response vs control in vivo at 6.25 mg/kg [6, 10]: 92%; response vs control in vivo at 6.25 mg/kg [6, 11]: 140% |
| CCCN1C(=O)N2C(=NCC2c2ccccc2)c2c1ncn2C (centres unmarked) [Compound 5, 1-Methyl-7-phenyl-4-n-propyl-1,4,7,8-tetrahydro-5H-imidazo[2,1-i]purin-5-one] | 32 |  | 542 ± 36 | > 300 | response vs control in vivo at 25 mg/kg [6, 8]: 167%; response vs control in vivo at 25 mg/kg [6, 9]: 77%; response vs control in vivo at 25 mg/kg [6, 10]: 197%; response vs control in vivo at 25 mg/kg [6, 11]: 165% |
| O=C1N2CCN=C2c2[nH]cnc2N1Cc1ccc(Cl)cc1 [formula (A)] |  |  |  |  | bronchodilatory effect [7]: slight bronchodilatory effect |

Source: patent US5270316A, “Condensed purine derivatives” (Kyowa Hakko Kogyo Co., Ltd., priority 1989, dated 1993)
